The test system of experiment [1] is peripherally stimulated gastric acid secretion (bethanechol). The experiment in a line: Gastric acid secretion stimulated peripherally by bethanechol. Type of experiment: in vivo, Sprague-Dawley strain male rats. The conditions noted are these: rat, 30 mg/kg into duodenum 2 hours before stimulant; bethanechol 1 mg/kg s.c. On the procedure: (§1) Sprague-Dawley strain male rats (body weight: 200-250 g) fasted for 24 hours (with free access of water) were used for the test.
(§2) (2) Test on central acting inhibitory effect of gastric acid secretion
(§3) Whether the antisecretory effect of the compound is based on central action or not was judged according to mode of antisecretory action of the compound to centrally stimulated gastric acid secretion and peripherally stimulated gastric acid secretion. […]
(§4) We determined the site of action (central or peripheral) of the compound by the result from above examination. […]
(§5) Gastric acid was collected every 20 min. by flushing the gastric lumen with 5 ml saline. The acid content of each sample was determined by titration of 0.02 N-NaOH.
(§6) Peripheral stimulation of gastric acid secretion was carried out by subcutaneous administration of 10 mg/kg of histamine or 1 mg/kg of bethanechol. […] Inhibitory percentage of acid secretion of the compound was calculated from the following formula. […]

Experiment [2] deals with water-immersion and restraint stress induced gastric ulcer. The experiment in a line: Antiulcer test: water-immersion and restraint stress induced gastric ulcer model in rats. The format is in vivo, Sprague-Dawley strain male rats. The conditions noted are these: for inhibition in vivo at 50 mg/kg / inhibition in vivo at 100 mg/kg / inhibition in vivo at 30 mg/kg: Rattus norvegicus, po, 17 h, read-out: Effect (inhibitory percentage of ulcer formation, judgement); for inhibition in vivo at 100 mg/kg: 100 mg/kg oral; for Test on anti-ulceration (ulcer caused by stress), Test (1): 100 mg/kg P.O.; for inhibition of stress-induced ulcer (in words): discussion statement. On the procedure: Sprague-Dawley strain male rats (body weight: 200-250 g) fasted for 24 hours (with free access of water) were used for the test. (1) Antiulcer test Anticular effect of the compound was examined by means of water-immersion and restraint stress induced gastric ulcer model in rats. The ulcer experiment was performed in accordance with the method of Takagi and Okabe referred to hereinafter. Rats were immobilized in a restraint cage. The animals were then immersed vertically to the level of the xiphoid process in water bath (23° C.) for 17 hr and killed by deep ether anesthesia. The stomach of each rat was removed and inflated by injecting 10 ml of 1% formalin to fix the inner and outer layer of gastric wall. Subsequently, the stomach was incised along the greater curveture and the length of ulcers in glandular portion was measured. The sum of the length (mm) of each ulcer was used as an ulcer index. Test compound was suspended in 0.5% methylcellulose solution and was orally administered at a volume of 5 ml/kg to the rat 30 minutes prior to stress loading. To the control group was administered vehicle alone at the same volume. Inhibitory percentage of ulcer formation of the compound was calculated from the following formula. [formula]

Experiment [3] relates to centrally stimulated gastric acid secretion (baclofen). Put plainly: Central acting inhibitory effect of gastric acid secretion: baclofen-stimulated (central). The format is in vivo, Sprague-Dawley strain male rats. The conditions noted are these: rat, 30 mg/kg into duodenum 2 hours before stimulant; baclofen 2 mg/kg s.c. On the procedure: as §1, §2, §3, §4, §5, §6
Experiment [4] relates to peripherally stimulated gastric acid secretion (histamine). Put plainly: Gastric acid secretion stimulated peripherally by histamine. Type of experiment: in vivo, Sprague-Dawley strain male rats. The conditions noted are these: rat, 30 mg/kg into duodenum 2 hours before stimulant; histamine 10 mg/kg s.c. On the procedure: as §1, §2, §3, §4, §5, §6
In experiment [5] the test system is PAF-induced platelet aggregation. Put plainly: Anti-PAF test in vitro (inhibitory action on PAF-induced platelet aggregation, PRP). The conditions noted are these: Oryctolagus cuniculus, rabbit PRP. The format is cell-based, rabbit (male Japanese white rabbits). On the procedure: The inhibition of PAF-induced platelet aggregation was examined by using a platelet-rich plasma (PRP) of rabbit according to the method of Mustard et al. [J. F. Mustard et al., J. Lab. Blin. Med., 64, 548 (1964)], which is an improved method of Born [G.V.R. Born, J. Physiol., London, 162, 67 (1962) ]. That is, 80-100 ml of blood per animal was collected from carotoid arteries of conscious male Japanese white rabbits into a polyethylene vessel containing 1/10 the volume of a 3.8% sodium citrate solution. A portion (about 3 ml) of the collected blood was centrifuged at a high speed (11,000 rpm) for 60 seconds to give a platelet-poor plasma (PPP) as supernatant. The remainder of the blood was centrifuged at a low speed (1000 rpm) for 10 minutes to give a platelet-rich plasma (PRP) as supernatant.
The degree of platelet aggregation was determined by nephelometry with an aggregometer (Hematracer, Niko Biosciene Co.) while stirring the PRP at 1000 rpm at 37° C. The degree of platelet aggregation was expressed in terms of the light transmittance (%), the value of PRP being taken as 0% and the value of […]. A portion (0.2 ml) of the PRP was placed into a glass cuvette containing a silicone-coated stirring iron bar, and 2 μl of dimethylsulfoxide was added. After 2 minutes, PAF dissolved in physiological saline containing 0.25% BSA was added to give a final PAF concentration of […], and the maximum aggregation was determined. To measure the inhibitory activity of test compounds on the platelet aggregation induced by PAF, 2 μl of a dimethylsulfoxide solution of each test compound was added in place of dimethylsulfoxide. The inhibitory percentage by the test compound of PAF-induced platelet aggregation was calculated according to the following equation and the value of IC50 was determined. [formula]

For experiment [6], the system named is PAF-induced ulcer. Put plainly: Test on PAF-induced ulcer. The format is in vivo, Sprague-Dawley strain male rats. The conditions noted are these: for Test on inhibition of PAF-induced ulcer, Test (3): rat, 100 mg/kg P.O. 30 minutes before PAF, effective = statistically significant vs control. On the procedure:
as §1
(3) Test on PAF-induced ulcer
Inhibitory effect of the compound on PAF-induced ulcer was examined. PAF-induced ulcer in rat was caused by intravenous administration of 10 μg/kg of PAF. One hour after PAF administration, rat was killed under deep ether anesthesia and stomach was removed. The stomach was inflated and fixed by injecting 10 ml of 1% formalin solution and then cut open along greater curvature. Areas (mm^2) of the ulcerated portions were measured and sum of them was taken as ulcer-index. Test compound was suspended in a 0.5% methylcellulose solution and orally administered at a volume of 5 ml/kg 30 minutes before the administration of PAF. Vehicle alone was administered to control rat at the same volume with test group. With reference to the effect of the compound to inhibit ulceration, results of treated group and those of control group were compared and those which have a statistical significance was judged to be effective.

For experiment [7], the system named is PAF-induced ulcer. The conditions noted are these: cited from earlier work.
Where [8] appears, read: rat, 50 mg/kg oral, 30 minutes prior to stress.
The mark [9] stands for this setting: rat, 30 minutes prior to stress.

≈ marks a conversion by molar mass, not a printed value. Read-outs that look alike come from different tables or passages of the source. Where only a bound is given, the exact number is not on record here.

For `CN1C(=O)C(c2ccc(Cl)cc2)SC1c1cccnc1` (single isomer, unassigned) [2 (Isomer II), 5-(4-Chlorophenyl)-3-methyl-2-(3-pyridyl)-thiazolidin-4-one], in experiment [1], the “Inhibitory percentage of acid secretion (judgement), stimulant bethanechol” value was “- (Less than 40%.)”. In experiment [2] (setting [8]), the inhibition in vivo at 50 mg/kg is greater than 80%. Besides, the “Inhibitory percentage of acid secretion (judgement), stimulant baclofen” value in experiment [3] is “+++ (Not less than 80%.)”. The “Inhibitory percentage of acid secretion (judgement), stimulant histamine” value in experiment [4] is reported as “- (Less than 40%.)”.

As to `COc1ccc(C2SC(c3cccnc3)N(C)C2=O)cc1` (stereo not drawn) [Example 48], in experiment [2] (setting [8]), the inhibition in vivo at 50 mg/kg was in the range of 40 to 60%.

With `CN1C(=O)C(c2ccccc2F)SC1c1cccnc1` (stereo not drawn) [Example 198], the inhibition in vivo at 100 mg/kg in experiment [2] (setting [9]) was greater than 80%.

In the case of `CN1C(=O)C(c2ccccc2)SC1c1cccnc1` (stereo not drawn) [Example 52], the inhibition in vivo at 50 mg/kg in experiment [2] (setting [8]) is 40 to 60%.

As for `CN1C(=O)C(c2ccc(Cl)cc2)SC1c1ccncc1` (stereo not drawn) [Example 46], the inhibition in vivo at 50 mg/kg in experiment [2] (setting [8]) was 60 to 80%.

As for `CN1C(=O)C(c2ccc(F)cc2)SC1c1cccnc1` (stereo not drawn) [Example 42], the IC50 (in general, the concentration needed to halve the response being measured) in experiment [5] worked out at 4 µg/mL (≈ 13.9 µM). For the same compound, the inhibition in vivo at 50 mg/kg in experiment [2] (setting [8]) was greater than 80%. Further, the “Test on anti-ulceration (ulcer caused by stress), Test (1)” value (shortened to “Test on anti-ulceration”) in experiment [2] (rat) is “Effective”. Moreover, the “Test on inhibition of PAF-induced ulcer, Test (3)” value (shortened to “Test on inhibition … (3)”) with PAF-induced ulcer [6] was “Effective”.

Regarding `CN1C(=O)C(c2ccc(Cl)cc2)[S+]([O-])C1c1cccnc1` (single isomer, unassigned) [Example 31, 5-(4-chlorophenyl)-3-methyl-2-(3-pyridyl)-1-oxo-thiazolidin-4-one], the “Effect (inhibitory percentage of ulcer formation, judgement)” value in experiment [2] (rat, 50 mg/kg oral, 30 minutes prior to stress, 50 mg/kg) was “++ (Not less than 60% and less than 80%.)”.

As for `CN1C(=O)[C@H](c2ccc(C(F)(F)F)cc2)S[C@@H]1c1cccnc1` (relative stereo) [Example 246], the inhibition in vivo at 100 mg/kg in experiment [2] (setting [9]) fell in the range of 60 to 80%.

For the compound `CN1C(=O)C(c2ccccc2F)[S+]([O-])C1c1cccnc1` (stereo not drawn) [Example 199], in experiment [2] (setting [9]), the inhibition in vivo at 100 mg/kg was greater than 80%.

As for `CN/C(=N/CCSCc1nc[nH]c1C)NC#N` [Cimetidine, reference compound], in experiment [2], the inhibition in vivo at 30 mg/kg lay within 60 to 80% and the “inhibition of stress-induced ulcer (in words)” value was “can be inhibited”. Besides, the “Test on anti-ulceration” value in experiment [2] (rat) is “Effective”. Moreover, the “inhibition of PAF-induced ulcer (in words)” value in the experiment on PAF-induced ulcer [7] (discussion statement, Table 5 cites Nature 319, 54-56 (1986)) is on record as “cannot be inhibited”. The “Test on inhibition of PAF-induced ulcer” value in the experiment with PAF-induced ulcer [7] (table head 100 mg/kg P.O., (*) Nature 319, 54-56 (1986)) is listed as “Ineffective”.

For `O=C1NC(c2cccnc2)SC1c1ccc(Cl)cc1` (stereo not drawn) [Example 178], the inhibition in vivo at 100 mg/kg in experiment [2] (setting [9]) was in the range of 40 to 60%.

Consider `CN1C(=O)C(c2ccc(Cl)cc2)SC1c1cccnc1` (stereo not drawn) [Example 1, 5-(4-chlorophenyl)-3-methyl-2-(3-pyridyl)thiazolidin-4-one], for which the IC50 in experiment [5] came out at 5.8 µg/mL (≈ 19 µM). Further, the inhibition in vivo at 50 mg/kg in experiment [2] (setting [8]) was in the range of 60 to 80%. Further, the “Test on anti-ulceration” value in experiment [2] (rat) was “Effective”. Also, the “Test on inhibition … (3)” value in the experiment on PAF-induced ulcer [6] is recorded as “Effective”.

As to `CN1C(=O)[C@@H](c2ccc(Cl)cc2)S[C@H]1c1cccnc1` (single isomer, unassigned) [Example 34, (-)-cis-5-(4-chlorophenyl)-3-methyl-2-(3-pyridyl)thiazolidin-4-one], in experiment [2] (setting [9]), the inhibition in vivo at 100 mg/kg lay within 60 to 80%.

Turning to `CN1C(=O)[C@@H](c2ccc(Cl)cc2)S[C@H]1c1cccnc1` (single isomer, unassigned) [Example 33, (+)-cis-5-(4-chlorophenyl)-3-methyl-2-(3-pyridyl)thiazolidin-4-one], the inhibition in vivo at 30 mg/kg in experiment [2] (rat, 30 mg/kg oral, 30 minutes prior to stress) is greater than 80%.

In the case of `COc1cc([C@H]2CC[C@H](c3cc(OC)c(OC)c(OC)c3)O2)cc(OC)c1OC` (relative stereo) [Example L-652731, trans2,5-bis(3,4,5-trimethoxyphenyl)tetrahydrofuran, reference compound], in experiment [5], half-maximal inhibition (IC50) required 0.2 µg/mL (≈ 0.494 µM). Further, in experiment [2], the “inhibition of stress-induced ulcer (in words)” value is reported as “cannot be inhibited”. For the same compound, in experiment [2] (rat), the “Test on anti-ulceration” value was “Ineffective”. In the experiment with PAF-induced ulcer [6] (discussion statement), the “inhibition of PAF-induced ulcer (in words)” value was “remarkably inhibited”. Besides, the “Test on inhibition … (3)” value in the experiment with PAF-induced ulcer [6] is recorded as “Effective”.

Consider `CN1C(=O)[C@H](c2ccc(F)cc2)S[C@@H]1c1cccnc1` (relative stereo) [Example 221], for which, in experiment [2] (setting [9]), the inhibition in vivo at 100 mg/kg was greater than 80%.

Turning to `COc1ccc(C2NC(=O)C(C)S2)cc1OC` (stereo not drawn) [Mezolidon, 2-(3,4-dimethoxyphenyl)-5-methylthiazolidin-4-one, reference compound], the inhibition in vivo at 100 mg/kg in experiment [2] (setting [9]) is less than 40%. Further, the “effect by the test method employed in the present invention” value in experiment [2] (statement in words) is listed as “nearly ineffective”.

On to `CN1C(=O)C(c2ccc(Cl)cc2)[S+]([O-])C1c1cccnc1` (single isomer, unassigned) [Example 30, 5-(4-chlorophenyl)-3-methyl-2-(3-pyridyl)-1-oxo-thiazolidin-4-one], for which, in experiment [2] (setting [8]), the inhibition in vivo at 50 mg/kg lay in the range of 40 to 60%.

The record behind these values is patent publication US5021435A, “Certain pyridyl-thiazolidin-4-one having anti-ulcer activity” (Sumitomo Pharmaceuticals Company, Limited, priority 1988, dated 1991).
